Here are results for 22 compounds from US11566030B2, “Substituted 2,6-dihydropyrrolo[3,4-c]pyrazoles as pyruvate kinase activators” (priority 2021, dated 2023).

Where two headings read alike, the source gives them in different places.

For the test, the target named is T1, Human pyruvate kinase R (PKR) (Homo sapiens, UniProt P30613).
T1 construct: Human pyruvate kinase R (PKR), residues 14-574; 6xHis-8xArg-SUMO (N, cleaved yes); host or cells: E. coli
Nature of the test: Biochemical assay for activation of pyruvate kinase R (Kinase-Glo luminescence, ATP generation). Particulars: for Emax: read-out: PKR % activation, maximal activation level achieved with each compound relative to the activation level achieved by AG-348 @ 10 μM. As for the experimental part:
Human pyruvate kinase R (PKR), residues 14-574, and human pyruvate kinase M2, residues 1-531, were cloned into expression plasmids and obtained from ATUM Bio (Newark, Calif.). Proteins were translated as fusions with 6×-His,8×-Arg, and SUMO at the N-terminus. A third construct of human PKR was truncated, residues 50-574, and similarly cloned for use in crystallography experiments. All proteins were cloned, expressed in E. coli, and purified using similar protocols. Cells were grown at 30° C. in Luria-Bertani broth supplemented with 0.4% glucose to OD600=0.8 and induced with 0.4 mM IPTG at 16° C. for 18 hours. Cells were harvested by centrifugation, resuspended in 50 mM potassium phosphate pH 8.0, 500 mM NaCl, 25 mM imidazole pH 8.0, and 3 mM β-mercaptoethanol. Cells were lysed using a LM20 microfluidizer from Microfluidics (Westwood, Mass.). The crude lysate was immediately supplemented with 0.2 mM phenylmethylsulfonyl fluoride (PMSF) and centrifuged at 20,000 g for 20 minutes. The soluble fraction was subsequently incubated with 2 mL Ni-NTA (GE Healthcare) per 1,000 ODs for 1 hour at 4° C. Following incubation with the Ni-NTA resin, lysate was removed by pelleting resin at 2,500 g for 3 minutes and washed 3 times with 9 bed volumes of 50 mM potassium phosphate pH 8.0, 500 mM NaCl, 25 mM imidazole, and 3 mM β-mercaptoethanol. Following the batch wash Ni-NTA resin was loaded onto a gravity column and His-tagged protein was eluted with 6 bed volumes of 10 mM Tris/HCl pH 8.0, 200 mM NaCl, 500 mM imidazole, and 3 mM β-mercaptoethanol. Eluted protein was dialyzed overnight against 10 mM Tris/HCl pH 8.0, 200 mM NaCl, and 1 mM DTT and the 6×-His-8×-Arg-SUMO-tag was cleaved using a 20:1 molar ratio of protein: 3C protease. The protein was purified by anion exchange chromatography on a HiTrapQ or MonoQ 10/100 GL column (GE Healthcare) via a linear NaCl gradient and twice by size exclusion chromatography using a Superdex S200 26/60 column (GE Healthcare) run in 10 mM Tris/HCl pH 8.0, 200 mM NaCl, 10 mM MgCl2, 1 mM DTT. Proteins were concentrated to −12 mg/mL for crystallization and flash frozen for storage.
Biochemical assay for Activation of Pyruvate Kinase R
Activation of pyruvate kinase R (PKR) and pyruvate kinase M2 (PKM2) were measured using a luminescence based measurement of ATP generation and the Kinase-Glo luminescent kinase reagent kit.

Setting [1] is: PKR AC50 (nM), 0.1 nM PKR, 0.3 mM ADP, 0.1 mM PEP, 1% DMSO.

As a reminder, the AC50 is the concentration at which the activity in the assay is half-maximal. Read a low AC50 as greater potency.

T1 sequence (P30613 14-574): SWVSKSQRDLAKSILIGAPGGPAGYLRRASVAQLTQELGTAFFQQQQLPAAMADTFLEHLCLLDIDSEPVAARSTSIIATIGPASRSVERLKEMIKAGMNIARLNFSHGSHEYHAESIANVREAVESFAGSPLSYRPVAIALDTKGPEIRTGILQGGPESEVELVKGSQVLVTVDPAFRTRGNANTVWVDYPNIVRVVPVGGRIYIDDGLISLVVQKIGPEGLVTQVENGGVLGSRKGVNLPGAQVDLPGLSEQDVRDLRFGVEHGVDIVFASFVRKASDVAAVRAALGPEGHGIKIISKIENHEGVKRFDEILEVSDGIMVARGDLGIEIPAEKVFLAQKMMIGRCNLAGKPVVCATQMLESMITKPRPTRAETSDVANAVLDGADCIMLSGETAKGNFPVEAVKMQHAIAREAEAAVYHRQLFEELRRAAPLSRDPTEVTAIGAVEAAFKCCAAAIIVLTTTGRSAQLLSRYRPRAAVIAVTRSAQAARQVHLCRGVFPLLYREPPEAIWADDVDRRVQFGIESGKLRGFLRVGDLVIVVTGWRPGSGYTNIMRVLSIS

Consider `O=C([C@H](CO)c1ccccc1Cl)N1Cc2cn(S(=O)(=O)c3ccn(CC(F)(F)F)n3)nc2C1` [Compound 63, (2S)-2-(2-chlorophenyl)-3-hydroxy-1-[2-[1-(2,2,2-trifluoroethyl)pyrazol-3-ylsulfonyl]-4H,6H-pyrrolo[3,4-c]pyrazol-5-yl]propan-1-one], for which the Emax was found to be 85%. The compound further registered an AC50 under setting [1] of 50 nM.

`Cc1cn(CC(F)(F)F)nc1S(=O)(=O)n1cc2c(n1)CN(C(=O)[C@H](CO)c1ccccc1Cl)C2` [Compound 70, (2S)-2-(2-chlorophenyl)-3-hydroxy-1-{2-[4-methyl-1-(2,2,2-trifluoroethyl)pyrazol-3-ylsulfonyl]-4H,6H-pyrrolo[3,4-c]pyrazol-5-yl}propan-1-one]: the Emax is 36%. Under setting [1], this compound came in with an AC50 of 82 nM.

For `Cc1cn(CC(F)(F)F)nc1S(=O)(=O)n1cc2c(n1)CN(C(=O)[C@@H](CO)c1ccccc1)C2` [Compound 67, (2R)-3-hydroxy-1-{2-[4-methyl-1-(2,2,2-trifluoroethyl)pyrazol-3-ylsulfonyl]-4H,6H-pyrrolo[3,4-c]pyrazol-5-yl}-2-phenylpropan-1-one], the Emax turned out to be 0%.

As for `O=C([C@H](CO)c1ccccc1F)N1Cc2cn(S(=O)(=O)c3cnn(CC(F)(F)F)c3)nc2C1` [Compound 3, (2S)-2-(2-fluorophenyl)-3-hydroxy-1-(2-{[1-(2,2,2-trifluoroethyl)-1H-pyrazol-4-yl]sulfonyl}-2H,4H,5H,6H-pyrrolo[3,4-c]pyrazol-5-yl)propan-1-one], the Emax was 108%. Moreover, the activity under setting [1] was half-maximal at 7.1 nM (AC50).

With `O=C([C@H](CO)c1ccccc1Cl)N1Cc2cn(S(=O)(=O)c3cnn(CCF)c3)nc2C1` [Compound 90, (2S)-2-(2-chlorophenyl)-1-{2-[1-(2-fluoroethyl)pyrazol-4-ylsulfonyl]-4H,6H-pyrrolo[3,4-c]pyrazol-5-yl}-3-hydroxypropan-1-one], the Emax is 131%. In addition, the AC50 under setting [1] amounted to 5.7 nM.

In the case of `O=C([C@@H](CO)c1ccccc1Cl)N1Cc2cn(S(=O)(=O)c3cnn(CCF)c3)nc2C1` [Compound 91, (2R)-2-(2-chlorophenyl)-1-{2-[1-(2-fluoroethyl)pyrazol-4-ylsulfonyl]-4H,6H-pyrrolo[3,4-c]pyrazol-5-yl}-3-hydroxypropan-1-one], the Emax is 164%. Also, half-maximal activity under setting [1] (AC50) was put at 91 nM.

As for `COc1ccccc1[C@@H](CO)C(=O)N1Cc2cn(S(=O)(=O)c3cnn(CC(F)F)c3)nc2C1` [Compound 120, (2S)-1-{2-[1-(2,2-difluoroethyl)pyrazol-4-ylsulfonyl]-4H,6H-pyrrolo[3,4-c]pyrazol-5-yl}-3-hydroxy-2-(2-methoxyphenyl)propan-1-one], the AC50 was determined as 16 nM and the Emax was 102%.

Consider `O=C(N1Cc2cn(S(=O)(=O)c3cnn(CC(F)F)c3)nc2C1)C1(c2ncccc2Cl)COC1` [Compound 8, 3-chloro-2-(3-[2-[1-(2,2-difluoroethyl)pyrazol-4-ylsulfonyl]-4H,6H-pyrrolo[3,4-c]pyrazole-5-carbonyl]oxetan-3-yl)pyridine], for which the Emax is 103%. This compound also came in with an AC50 under setting [1] of 5.7 nM.

In the case of `Cc1cn(CC(F)F)nc1S(=O)(=O)n1cc2c(n1)CN(C(=O)[C@@H](CO)c1ccccc1Cl)C2` [Compound 81, (2R)-2-(2-chlorophenyl)-1-{2-[1-(2,2-difluoroethyl)-4-methylpyrazol-3-ylsulfonyl]-4H,6H-pyrrolo[3,4-c]pyrazol-5-yl}-3-hydroxypropan-1-one], the concentration at half-maximal activity (AC50) amounted to 500 nM and the Emax stood at 62%.

Take `COCCn1ccc(S(=O)(=O)n2cc3c(n2)CN(C(=O)[C@@H](CO)c2ccccc2F)C3)n1` [Compound 45, (2R)-2-(2-fluorophenyl)-3-hydroxy-1-[2-[1-(2-methoxyethyl)pyrazol-3-ylsulfonyl]-4H,6H-pyrrolo[3,4-c]pyrazol-5-yl]propan-1-one]: the Emax amounted to 53%. For the same compound, the AC50 under setting [1] is 1300 nM.

As for `O=C([C@@H](CO)c1ccccc1)N1Cc2cn(S(=O)(=O)c3cnn(CC(F)(F)F)c3)nc2C1` [Compound 84, (2R)-3-hydroxy-2-phenyl-1-{2-[1-(2,2,2-trifluoroethyl)pyrazol-4-ylsulfonyl]-4H,6H-pyrrolo[3,4-c]pyrazol-5-yl}propan-1-one], half-maximal activity (AC50) was put at 2500 nM and the Emax was 73%.

For the compound `Cc1cn(CC(F)F)nc1S(=O)(=O)n1cc2c(n1)CN(C(=O)[C@@H](CO)c1ccccc1F)C2` [Compound 79, (2R)-1-{2-[1-(2,2-difluoroethyl)-4-methylpyrazol-3-ylsulfonyl]-4H,6H-pyrrolo[3,4-c]pyrazol-5-yl}-2-(2-fluorophenyl)-3-hydroxypropan-1-one], the activity was half-maximal at 550 nM (AC50) and the Emax worked out at 33%.

Regarding `COCCn1cc(S(=O)(=O)n2cc3c(n2)CN(C(=O)[C@@H](CO)c2ccccc2F)C3)cn1` [Compound 61, (2R)-2-(2-fluorophenyl)-3-hydroxy-1-{2-[1-(2-methoxyethyl)pyrazol-4-ylsulfonyl]-4H,6H-pyrrolo[3,4-c]pyrazol-5-yl}propan-1-one], the Emax turned out to be 49%. For the same compound, the AC50 under setting [1] was found to be 3000 nM.

Regarding `O=C([C@H](CO)c1ccccc1F)N1Cc2cn(S(=O)(=O)c3ccn(CC(F)F)n3)nc2C1` [Compound 12, (2S)-1-(2-{[1-(2,2-difluoroethyl)-1H-pyrazol-3-yl]sulfonyl}-2H,4H,5H,6H-pyrrolo[3,4-c]pyrazol-5-yl)-2-(2-fluorophenyl)-3-hydroxypropan-1-one], the Emax came out at 121%. The compound also had an AC50 under setting [1] of 6.9 nM.

Take `COC(C(=O)N1Cc2cn(S(=O)(=O)c3cnn(CC(F)F)c3)nc2C1)c1ccccc1F` (stereo not shown) [Compound 114]: the Emax came to 134%. Besides, under setting [1], the AC50 amounted to 320 nM.

For the compound `O=C([C@@H](CO)c1ccccc1Cl)N1Cc2cn(S(=O)(=O)c3cnn(CC(F)F)c3)nc2C1` [Compound 46, (R)-2-(2-chlorophenyl)-1-(2-((1-(2,2-difluoroethyl)-1H-pyrazol-4-yl)sulfonyl)-2,6-dihydropyrrolo[3,4-c]pyrazol-5(4H)-yl)-3-hydroxypropan-1-one], the AC50 stood at 150 nM and the Emax came to 191%.

As for `O=C([C@@H](CO)c1ccccc1Cl)N1Cc2cn(S(=O)(=O)c3cnn(CC(F)(F)F)c3)nc2C1` [Compound 48, (2R)-2-(2-chlorophenyl)-3-hydroxy-1-[2-[1-(2,2,2-trifluoroethyl)pyrazol-4-ylsulfonyl]-4H,6H-pyrrolo[3,4-c]pyrazol-5-yl]propan-1-one], the Emax was 111%. Under setting [1], this compound displayed an AC50 of 580 nM.

As for `Cc1cn(CC(F)(F)F)nc1S(=O)(=O)n1cc2c(n1)CN(C(=O)[C@H](CO)c1ccccc1)C2` [Compound 66, (2S)-3-hydroxy-1-{2-[4-methyl-1-(2,2,2-trifluoroethyl)pyrazol-3-ylsulfonyl]-4H,6H-pyrrolo[3,4-c]pyrazol-5-yl}-2-phenylpropan-1-one], the Emax worked out at 0%. In addition, the AC50 under setting [1] was 120 nM.

Consider `O=C([C@@H](O)c1ccccc1)N1Cc2cn(S(=O)(=O)c3cnn(CC(F)F)c3)nc2C1` [Compound 34, (2S)-1-[2-[1-(2,2-difluoroethyl)pyrazol-4-ylsulfonyl]-4H,6H-pyrrolo[3,4-c]pyrazol-5-yl]-2-hydroxy-2-phenylethanone], for which half-maximal activity (AC50) was put at 930 nM and the Emax came to 102%.

`O=C([C@@H](CO)c1ccccc1OCCO)N1Cc2cn(S(=O)(=O)c3cnn(CC(F)F)c3)nc2C1` (single isomer, unassigned) [Compound 110]: the activity was half-maximal at 37 nM (AC50) and the Emax stood at 146%.

On to `O=C([C@@H](CO)c1cccc(F)c1F)N1Cc2cn(S(=O)(=O)c3cnn(CC(F)(F)F)c3)nc2C1` [Compound 74, (2R)-2-(2,3-difluorophenyl)-3-hydroxy-1-{2-[1-(2,2,2-trifluoroethyl)pyrazol-4-ylsulfonyl]-4H,6H-pyrrolo[3,4-c]pyrazol-5-yl}propan-1-one], for which the Emax was found to be 72%. Further, the AC50 under setting [1] was 440 nM.

Turning to `O=C([C@H](CO)c1ccccc1)N1Cc2cn(S(=O)(=O)c3csc(C(F)(F)F)c3)nc2C1` [Compound 117, (2S)-3-hydroxy-2-phenyl-1-(2-{[5-(trifluoromethyl)thiophen-3-yl]sulfonyl}-2H,4H,5H,6H-pyrrolo[3,4-c]pyrazol-5-yl)propan-1-one], the Emax is 35%. Moreover, the AC50 under setting [1] came out at 22 nM.
